In US20030125311A1, “Compounds capable of binding with the cytoskeleton” (priority 2002, published 2003):

Legend:
purified calf MAP2 = biological target: T1, purified calf MAP2 (Bos taurus, UniProt A0A3Q1NAK9); test: Equilibrium binding of PREG [3H] to purified calf MAP2
T1 construct: from tissue; host or cells: calf brain microtubules, heat denaturation and Sephacryl 300 gel filtration
Procedure: (§1) The tau and MAP2 proteins are purified according to the protocol of Fellous et al. (12) by heat denaturation of the microtubules and gel filtration on a column, Sephacryl 300® being used instead of the Ultrogel ACA 34. The tau proteins are then Further purified according to the method of Lindwall and Cole (15).
(§2) Purified calf brain tubulin (90 μg/ml), MAP2 (45 μg/ml) or tau protein (25 μg/ml) is incubated with 100 nM of PREG [^3H], with or without a 1,000-fold excess of non-radioactive PREG.
(§3) The B/U values are reported in FIG. 5 as a function of B in nM, (-∘-) representing equilibrium binding of purified calf brain MAP2, and (-∘-) the equilibrium binding of purified calf brain MAP2 associated with purified calf brain tubulin (for the experimental details, see FIG. 1).

[1] = biological target: adult rat brain cytosol compound which binds PREG (Rattus norvegicus, UniProt P15146); test: Equilibrium binding of PREG to adult rat brain cytosol
Procedure: Adult male rat brains are collected after perfusion with PBS containing 2 IU/ml of heparin. The brains are weighed and homogenized with 4 vol. of homogenization buffer in Potter glass/Teflon® homogenizers, and centrifuged at 800 g for 10 min.
(§4) The supernatant is then centrifuged at 100,000 g for 1 h at 4° C. The samples are used immediately for the trials, or are stored in liquid nitrogen until the moment of their use.
(§5) Just before the binding trial, each sample is purified with a dextran-carbon suspension, and 2 ml samples of supernatant (purified cytosol) are added to a series of tubes containing 1 to 500 nM PREG [^3H], with or without unlabeled steroid in 1,000-fold excess.
(§6) The tubes are incubated at 45° C. for 30 min. The separation of bound and free steroid was carried out on a Sephadex LH-20® (Amersham Pharmacia Biotech) mini-column.
(§7) The counting of the radioactivity in the flasks was performed in a liquid scintillation spectrometer with attenuation correction (Tri-Carb 2100 TR®, Packard).

fetal microtubules = fetal microtubules (Rattus norvegicus, UniProt P15146); test: Competition for PREG [3H] binding to fetal microtubules (RCR); details: PREG = 100
Procedure: (§8) In trials of competition between pregnenolone and different steroids for the binding studied, 0.2 ml of cytosol is incubated with 100 nM of PREG [^3H] and a 1-, 10-, 100-, and 1,000-fold excess of non-radioactive steroid.
(§9) The microtubules are prepared starting from calf brain or adult or fetal rat brain according to an assembly/disassembly method, as a function of the temperature, in vitro (12).
(§10) The relative competition index was determined as ratios of the concentrations of the competitor (in the […]) versus PREG causing a reduction of 50% of the specific binding of PREG [^3H]×100 (mean±standard error, n=3).
(§11) The binding of PREG [^3H] to microtubules prepared by polymerization/depolymerization cycles was determined.

[2] = biological target: fetal rat brain cytosol binding sites of pregnenolone (Rattus norvegicus, UniProt P15146); test: Equilibrium binding of PREG [3H] to fetal brain cytosol; details: mean±standard error, n=3
Procedure: Fetal brains are collected, and are rinsed, after the meninges have been removed, with a homogenization buffer at 4° C. [10 mM of Tris-HCl, at pH 8.5, containing 1.5 mM of EDTA, 1 mM of dithiothreitol, 10% of glycerol, Complete®, (a mixture of protease inhibitors, Roche Molecular Biochemical); termed TEDG buffer].
as §4, §5, §6, §7
The equilibrium binding data are analyzed with the Mac Ligand program, adapted from Munson and Rodbard (17). […]
The bound steroid is separated by gel filtration on Sephadex LH20® at 0-4° C. The binding constants are determined with the Mac Ligand program.

[3] = test system: calf brain tubulin assembled with calf brain MAP2; test: Electron microscopy of microtubules polymerized in the presence of PREG; assay type: biochemical; details: 500 nM of PREG
Procedure: After the polymerization of the microtubules induced by MAP2 in the absence or presence of the substance to be tested, an aliquot portion of the experimental sample is deposited on a hydrophilic grid (300 mesh) covered with carbon. The grids are treated with an aqueous solution of 1% uranyl acetate. Observations are performed with a Phllips CM12 electron microscope.
Analysis was performed of microtubules polymerized in the presence of PREG to verify their appearance.

adult microtubules = adult microtubules (Rattus norvegicus, UniProt P15146); test: Binding of PREG [3H] to purified adult rat brain microtubules
Procedure: as §9, §11

MAP2-tubulin copolymers = MAP2-tubulin copolymers (Bos taurus, UniProt A0A3Q1NAK9); test: Equilibrium binding of PREG [3H] to MAP2-tubulin copolymers; parameters: species or system calf
Procedure: The calf tubulin is purified according to the protocol of Weingarten et al. (13), but the step using phosphocellulose is replaced by a cation exchange column chromatography (Fractogel, Merck) (14). The microtubules and the tubulin are prepared in L buffer, supplemented with 1 mM of GTP (buffer A).
as §1, §2, §3

[4] = test system: rat brain cytosol binding sites of pregnenolone; test: Competition trials for PREG [3H] binding in brain cytosol; parameters: key to R.C.R. 50 (relative competition index): IC50(PREG)/IC50(competitor) ×100; PREG = 100; details: PREG = 100, 50% reduction of specific binding of 100 nM PREG [3H], mean±standard error, n=3
Procedure: as §8
To study the specificity of the binding of PREG [^3H], different steroids were used.
as §10

tau protein = test: Saturable binding of PREG [3H] to purified tau protein; parameters: species or system calf; details: tau protein 25 μg/ml, 100 nM PREG [3H] ± 1,000-fold excess PREG
Procedure: as §1, §2

[5] = biological target: T2, microtubules reconstituted with purified tubulin and MAP2 (Bos taurus, UniProt A0A3Q1NAK9); test: Kinetics of assembling of microtubules (turbidity at 345 nm); assay type: biochemical, calf; details: 500 nM steroid, 37° C., 15 min
T2 construct: from tissue; host or cells: calf brain
Procedure: This assembling is measured by monitoring the increases of turbidity with a UVICON® spectrophotometer (Kontron Instruments, Montigny-le-Bretonneux, France)
The microtubules are reconstituted in vitro with purified tubulin (1 mg/ml) and MAP2 (0.05 mg/ml) in buffer A.
The increase of absorbance is measured at 345 nm, at 37° C. and recorded every 30 sec. for 15 min.
The assembling of microtubules is measured either in the absence of steroids (-⋄-); or in the presence of 500 nM of steroid: PREG (- -), progesterone (-X-), estradiol (-V-); or in the presence, at the same time, of PREG and progesterone (-∘-) or of PREG and estradiol (-Δ-) each at a concentration of 500 nM.

T1 sequence (A0A3Q1NAK9 1-1867): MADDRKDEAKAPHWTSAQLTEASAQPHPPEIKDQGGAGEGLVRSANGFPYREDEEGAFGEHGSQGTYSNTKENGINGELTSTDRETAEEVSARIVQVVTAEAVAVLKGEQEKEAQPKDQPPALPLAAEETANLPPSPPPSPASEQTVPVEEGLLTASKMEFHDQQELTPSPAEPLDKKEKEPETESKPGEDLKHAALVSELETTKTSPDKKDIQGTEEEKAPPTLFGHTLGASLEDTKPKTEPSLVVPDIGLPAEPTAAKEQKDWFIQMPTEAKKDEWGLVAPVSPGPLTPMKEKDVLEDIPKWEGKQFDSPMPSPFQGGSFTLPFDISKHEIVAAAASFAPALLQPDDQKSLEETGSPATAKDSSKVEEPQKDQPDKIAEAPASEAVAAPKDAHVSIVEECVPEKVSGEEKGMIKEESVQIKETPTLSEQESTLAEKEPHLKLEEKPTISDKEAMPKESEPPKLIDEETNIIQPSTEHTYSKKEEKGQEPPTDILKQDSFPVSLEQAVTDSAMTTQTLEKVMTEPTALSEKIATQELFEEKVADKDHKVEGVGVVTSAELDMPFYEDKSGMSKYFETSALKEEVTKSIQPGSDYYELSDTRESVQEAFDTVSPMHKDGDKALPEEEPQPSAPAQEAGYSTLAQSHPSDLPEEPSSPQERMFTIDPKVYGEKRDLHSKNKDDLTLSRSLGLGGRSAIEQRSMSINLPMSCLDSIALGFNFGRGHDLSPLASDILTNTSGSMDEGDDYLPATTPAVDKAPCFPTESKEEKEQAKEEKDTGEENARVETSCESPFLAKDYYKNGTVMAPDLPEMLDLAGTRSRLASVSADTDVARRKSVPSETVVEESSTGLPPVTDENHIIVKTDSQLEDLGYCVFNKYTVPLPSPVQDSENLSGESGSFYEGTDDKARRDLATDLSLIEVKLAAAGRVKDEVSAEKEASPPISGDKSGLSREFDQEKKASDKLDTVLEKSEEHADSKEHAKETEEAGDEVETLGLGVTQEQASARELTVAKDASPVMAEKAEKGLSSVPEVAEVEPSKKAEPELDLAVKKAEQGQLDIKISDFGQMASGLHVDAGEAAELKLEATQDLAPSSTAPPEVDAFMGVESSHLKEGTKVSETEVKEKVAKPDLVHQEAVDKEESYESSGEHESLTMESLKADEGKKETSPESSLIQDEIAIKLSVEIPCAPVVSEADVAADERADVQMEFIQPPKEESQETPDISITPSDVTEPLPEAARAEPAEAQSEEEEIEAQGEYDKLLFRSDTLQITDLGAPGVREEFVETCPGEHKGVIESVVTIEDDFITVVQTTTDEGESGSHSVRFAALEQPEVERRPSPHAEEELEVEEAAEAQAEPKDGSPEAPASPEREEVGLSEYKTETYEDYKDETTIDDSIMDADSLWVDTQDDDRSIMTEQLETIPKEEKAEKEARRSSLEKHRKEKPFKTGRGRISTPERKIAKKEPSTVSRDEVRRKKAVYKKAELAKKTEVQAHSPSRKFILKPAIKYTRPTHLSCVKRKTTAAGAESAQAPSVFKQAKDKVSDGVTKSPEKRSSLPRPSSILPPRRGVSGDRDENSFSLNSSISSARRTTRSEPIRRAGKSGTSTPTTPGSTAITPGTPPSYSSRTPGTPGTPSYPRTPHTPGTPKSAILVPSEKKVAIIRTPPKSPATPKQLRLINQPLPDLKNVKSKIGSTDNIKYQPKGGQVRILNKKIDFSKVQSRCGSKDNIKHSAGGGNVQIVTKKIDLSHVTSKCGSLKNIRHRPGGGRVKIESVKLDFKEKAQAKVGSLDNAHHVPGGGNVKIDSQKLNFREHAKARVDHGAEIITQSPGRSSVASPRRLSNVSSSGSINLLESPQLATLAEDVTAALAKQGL
Chain of MAP2-tubulin copolymers (A0A3Q1NAK9 1-1867): as above
T2 sequence (A0A3Q1NAK9 1-1867): as above
Chain of adult rat brain cytosol compound which binds PREG (P15146 whole entry, the tested form may be a part): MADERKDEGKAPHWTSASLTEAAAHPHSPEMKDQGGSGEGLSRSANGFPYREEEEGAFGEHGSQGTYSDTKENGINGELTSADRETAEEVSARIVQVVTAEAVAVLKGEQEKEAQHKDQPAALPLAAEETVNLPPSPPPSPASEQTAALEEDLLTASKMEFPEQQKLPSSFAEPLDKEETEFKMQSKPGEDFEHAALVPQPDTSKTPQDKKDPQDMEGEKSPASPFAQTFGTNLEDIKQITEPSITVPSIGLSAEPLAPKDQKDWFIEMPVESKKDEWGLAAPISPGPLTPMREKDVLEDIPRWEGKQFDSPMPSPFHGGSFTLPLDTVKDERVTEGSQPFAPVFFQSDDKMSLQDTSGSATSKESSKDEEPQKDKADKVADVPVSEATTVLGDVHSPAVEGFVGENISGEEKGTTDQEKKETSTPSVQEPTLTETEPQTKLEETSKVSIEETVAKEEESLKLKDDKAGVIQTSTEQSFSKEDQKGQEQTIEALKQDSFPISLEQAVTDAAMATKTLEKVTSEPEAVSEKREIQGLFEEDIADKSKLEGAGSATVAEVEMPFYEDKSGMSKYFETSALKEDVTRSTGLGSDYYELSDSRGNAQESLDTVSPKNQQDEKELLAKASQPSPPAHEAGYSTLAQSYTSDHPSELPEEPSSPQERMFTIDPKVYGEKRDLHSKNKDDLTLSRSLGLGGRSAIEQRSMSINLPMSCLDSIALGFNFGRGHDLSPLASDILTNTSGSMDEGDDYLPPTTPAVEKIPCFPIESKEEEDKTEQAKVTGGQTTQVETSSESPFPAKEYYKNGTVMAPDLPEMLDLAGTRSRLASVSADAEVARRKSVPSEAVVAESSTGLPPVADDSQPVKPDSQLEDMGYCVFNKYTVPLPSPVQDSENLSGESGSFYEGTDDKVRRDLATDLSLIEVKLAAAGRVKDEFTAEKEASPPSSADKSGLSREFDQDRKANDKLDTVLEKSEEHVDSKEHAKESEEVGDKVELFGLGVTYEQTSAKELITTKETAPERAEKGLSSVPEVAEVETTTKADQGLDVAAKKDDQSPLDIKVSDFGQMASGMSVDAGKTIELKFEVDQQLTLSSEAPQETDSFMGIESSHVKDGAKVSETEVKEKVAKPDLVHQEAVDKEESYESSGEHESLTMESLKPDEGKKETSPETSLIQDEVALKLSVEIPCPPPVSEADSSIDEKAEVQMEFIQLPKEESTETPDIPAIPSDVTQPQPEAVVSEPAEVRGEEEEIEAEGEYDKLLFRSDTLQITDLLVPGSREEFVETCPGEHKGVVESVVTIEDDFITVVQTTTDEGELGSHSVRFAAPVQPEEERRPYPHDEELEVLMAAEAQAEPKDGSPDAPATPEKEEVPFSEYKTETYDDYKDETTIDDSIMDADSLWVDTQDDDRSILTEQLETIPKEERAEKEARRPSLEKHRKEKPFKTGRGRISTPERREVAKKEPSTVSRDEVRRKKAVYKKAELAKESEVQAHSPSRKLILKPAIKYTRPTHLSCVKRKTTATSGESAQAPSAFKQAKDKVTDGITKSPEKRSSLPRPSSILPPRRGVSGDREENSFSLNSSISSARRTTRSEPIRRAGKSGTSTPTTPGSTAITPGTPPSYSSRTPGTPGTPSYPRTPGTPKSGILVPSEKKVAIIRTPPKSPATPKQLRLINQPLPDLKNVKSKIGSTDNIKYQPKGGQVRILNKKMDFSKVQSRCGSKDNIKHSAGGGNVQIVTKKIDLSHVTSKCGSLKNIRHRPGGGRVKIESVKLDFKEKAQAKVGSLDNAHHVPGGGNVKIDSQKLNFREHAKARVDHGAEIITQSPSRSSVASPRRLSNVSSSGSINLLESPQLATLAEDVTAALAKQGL
Chain of fetal microtubules (P15146 whole entry): as the sequence (P15146 whole entry, the tested form may be a part) above
Chain of fetal rat brain cytosol binding sites of pregnenolone (P15146 whole entry): as the sequence (P15146 whole entry, the tested form may be a part) above
Chain of adult microtubules (Q3KRE8 whole entry): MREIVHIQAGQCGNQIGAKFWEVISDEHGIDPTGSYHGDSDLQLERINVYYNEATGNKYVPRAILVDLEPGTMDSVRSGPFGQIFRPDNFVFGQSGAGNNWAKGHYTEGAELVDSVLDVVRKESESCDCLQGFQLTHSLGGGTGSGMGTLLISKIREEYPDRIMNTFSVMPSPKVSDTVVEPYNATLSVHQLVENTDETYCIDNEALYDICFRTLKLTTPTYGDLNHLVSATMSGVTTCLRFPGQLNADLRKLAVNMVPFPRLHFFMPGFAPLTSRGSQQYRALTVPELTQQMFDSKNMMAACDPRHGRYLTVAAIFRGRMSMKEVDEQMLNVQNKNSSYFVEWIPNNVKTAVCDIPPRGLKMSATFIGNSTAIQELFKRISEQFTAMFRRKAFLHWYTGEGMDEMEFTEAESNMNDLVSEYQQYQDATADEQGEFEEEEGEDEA
Chain of adult microtubules (P68370 whole entry, further chain): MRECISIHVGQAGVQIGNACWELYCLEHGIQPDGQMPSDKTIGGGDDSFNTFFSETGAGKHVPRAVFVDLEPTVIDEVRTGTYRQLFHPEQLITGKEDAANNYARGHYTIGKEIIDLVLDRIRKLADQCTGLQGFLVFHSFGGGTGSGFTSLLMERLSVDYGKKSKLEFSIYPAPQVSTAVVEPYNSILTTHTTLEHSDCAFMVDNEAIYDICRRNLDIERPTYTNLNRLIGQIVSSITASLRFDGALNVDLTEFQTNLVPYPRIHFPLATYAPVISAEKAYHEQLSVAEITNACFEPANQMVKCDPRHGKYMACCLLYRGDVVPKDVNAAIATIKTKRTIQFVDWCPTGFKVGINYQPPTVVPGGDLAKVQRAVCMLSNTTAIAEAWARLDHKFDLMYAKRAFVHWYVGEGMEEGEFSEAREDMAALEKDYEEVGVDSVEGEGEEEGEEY
Chain of adult microtubules (P15146 whole entry): as the sequence (P15146 whole entry, the tested form may be a part) above

CC(=O)C1CCC2C3CC=C4CC(O)CCC4(C)C3CCC12C (stereo not drawn) [Pregnenolone]
Bmax (purified calf MAP2): 16 pmol/mg of MAP2 | Kd (purified calf MAP2): 39.2 nM | Bmax [1]: 0.75 pmol/mg of protein | RCR (fetal microtubules): 100 | maximum concentration of binding sites [2]: 1.2±0.1 pmol/mg of protein | structure of the microtubules [3]: remains completely normal | Bmax (adult microtubules): 3.4 pmol/mg of protein | Bmax (MAP2-tubulin copolymers): 135 pmol/mg of MAP2 | Kd (MAP2-tubulin copolymers): 44 nM | R.C.R. 50 (relative competition index) [4]: 100 | saturable binding to tau protein (tau protein): neither tubulin, nor tau protein, nor rabbit IgG binds PREG [^3H] in a saturable manner | effect on assembling of microtubules (absorbance at 345 nm) [5]: induces a strong increase of both the speed and the extent of the assembling of the tubulin
